Results as given in US20050019923A1, “Dendrimers for use in targeted delivery” (priority 2001, published 2005).

Tested on: A431 cell line
Experiment: In vitro cytotoxicity assay (MTT)
Type: cell-based, human
Settings: 4 h exposure, 72 h incubation
Protocol: A human epidermoid carcinoma cell line (A431, ATCC CRL-1555) was maintained in Dulbecco's minimum essential medium (DMEM) supplemented with 10% foetal calf serum (FCS) and 2 mM glutamine (GibcoBRL, UK) at 10% CO2 and 37° C.
Polypropylenimine dendrimer/dendrimer derivative formulation cytotoxicity was assessed by the measurement of the IC50 in a standard MTT (3-[4,5-dimethylthiazol-2-yl]-2,5-diphenyltetrazolium bromide thiazolyl blue—indicator dye) assay. Briefly, 96 well microtitre plates were seeded with 5000 cells per well and incubated for 24 hrs. Dilutions of the dendrimer/dendrimer—DNA formulations (100 μl) in tissue culture medium (Opti-Mem) were incubated with the cells for 4 h. The samples were then replaced with fresh DMEM daily and incubated for 72 h. After this period the indicator dye (50 μl, 50 mg ml^−1) was added to each well and incubated with the cells for 4 h in the dark. The medium and indicator dye were then removed and the cells lysed with dimethylsulphoxide (200 μl). After addition of Sorensen's glycine buffer (25 μl) the absorption was measured at 570 nm. Values were expressed as a percentage of the control to which no vesicles were added.

## CCCCCCCC/C=C\CCCCCCCC(=O)OCC(C[N+](C)(C)C)OC(=O)CCCCCCC/C=C\CCCCCCCC.COS(=O)(=O)[O-] (stereo not shown) [DOTAP, N-[1-(2,3-dioleoyloxy)propyl]-N,N,N-trimethylammonium methylsulphate]
  IC50, in vitro cytotoxicity: 62 µg/mL
